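48-hour exposure; five concentrations; linearly interpolated endpoints. GI50: concentration for 50% inhibition of growth.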 The source made the active and inactive calls. Cut-off read from the data, not from the text of the source: active = GI50 up to about 1.1 µM and inactive = higher.
Assays:
Test in all cases: growth of human tumour cells (NCI), 48 h
KM12 = system: KM12
DMS-273 = system: DMS-273
DLD-1 = system: DLD-1
NCI-H460 = system: NCI-H460
SR = system: SR
T47D = system: T47D
OVCAR-5 = system: OVCAR-5
MDA-MB-435 = system: MDA-MB-435
SK-MEL-28 = system: SK-MEL-28
TK-10 = system: TK-10
XF498 = system: XF498
HCT-15 = system: HCT-15
SK-OV-3 = system: SK-OV-3
NCI/ADR-RES = system: NCI/ADR-RES
Malme-3M = system: Malme-3M
786-0 = system: 786-0
DU-145 = system: DU-145
SNB-75 = system: SNB-75
KM-20L2 = system: KM-20L2
SN12C = system: SN12C
MDA-MB-231 = system: MDA-MB-231
A498 = system: A498
U-251 = system: U-251
MOLT-4 = system: MOLT-4
MCF7 = system: MCF7
NCI-H522 = system: NCI-H522
RXF 393 = system: RXF 393
NCI-H23 = system: NCI-H23
M19-MEL = system: M19-MEL
A549 = system: A549
HL-60 = system: HL-60
SK-MEL-5 = system: SK-MEL-5
LOX IMVI = system: LOX IMVI
SF-539 = system: SF-539
SF-268 = system: SF-268
ACHN = system: ACHN
MDA-N = system: MDA-N
SNB-19 = system: SNB-19
HCT-116 = system: HCT-116
BT-549 = system: BT-549
SK-MEL-2 = system: SK-MEL-2
NCI-H226 = system: NCI-H226
OVCAR-8 = system: OVCAR-8
DMS-114 = system: DMS-114
K562 = system: K562
UACC-257 = system: UACC-257
EKVX = system: EKVX
HCC 2998 = system: HCC 2998
RPMI-8226 = system: RPMI-8226
OVCAR-3 = system: OVCAR-3
HOP-62 = system: HOP-62
IGROV-1 = system: IGROV-1
PC-3 = system: PC-3
UACC-62 = system: UACC-62
CAKI-1 = system: CAKI-1
COLO 205 = system: COLO 205
HOP-92 = system: HOP-92
UO-31 = system: UO-31
SF-295 = system: SF-295
SNB-78 = system: SNB-78
CCRF-CEM = system: CCRF-CEM
LXFL 529 = system: LXFL 529
HT-29 = system: HT-29
Hs-578T = system: Hs-578T
M14 = system: M14
OVCAR-4 = system: OVCAR-4
SW-620 = system: SW-620

Measured: GI50

CCOCC(=O)N[C@H]1CCc2cc(OC)c(OC)c(OC)c2-c2ccc(OC)c(=O)cc21
active: KM12 12.9 nM | DMS-273 12.8 nM | DLD-1 19 nM | NCI-H460 16.5 nM | SR < 20.6 nM | OVCAR-5 741 nM | MDA-MB-435 12.3 nM | XF498 13.8 nM | SK-OV-3 111 nM | NCI/ADR-RES 982 nM | Malme-3M 22.9 nM | 786-0 19.9 nM | DU-145 21.3 nM | SNB-75 < 19.1 nM | KM-20L2 11.8 nM | SN12C 23.9 nM | MDA-MB-231 < 14.5 nM | A498 22.9 nM | U-251 17.3 nM | MOLT-4 23.1 nM | MCF7 20.7 nM | NCI-H522 14.3 nM | RXF 393 81.1 nM | NCI-H23 13.2 nM | M19-MEL < 20.2 nM | A549 21.1 nM | HL-60 < 10 nM | SK-MEL-5 13.3 nM | LOX IMVI < 12.5 nM | SF-539 14.8 nM | SF-268 23.3 nM | ACHN 96.2 nM | MDA-N 12.2 nM | SNB-19 164 nM | HCT-116 14 nM | BT-549 < 32.1 nM | SK-MEL-2 17.4 nM | NCI-H226 76.2 nM | OVCAR-8 19.4 nM | DMS-114 14.8 nM | K562 < 12.8 nM | UACC-257 37.7 nM | HCC 2998 14.1 nM | RPMI-8226 77.8 nM | OVCAR-3 14.8 nM | HOP-62 23.2 nM | IGROV-1 24.1 nM | PC-3 < 15.4 nM | UACC-62 15.3 nM | CAKI-1 57.7 nM | COLO 205 13.7 nM | HOP-92 30.3 nM | SF-295 20.6 nM | SNB-78 < 14.7 nM | CCRF-CEM 44.4 nM | LXFL 529 24 nM | HT-29 14.6 nM | Hs-578T 20.3 nM | M14 17.9 nM | SW-620 16.9 nM
86.5 nM: HCT-15
inactive: T47D > 100000 nM | SK-MEL-28 2230 nM | TK-10 2460 nM | EKVX > 15800 nM | UO-31 3560 nM | OVCAR-4 3620 nM

— ChEMBL document CHEMBL1201862, “PubChem BioAssay data set” (2004)
